# Where “and” joins values, the source holds several entries; their conditions need not be identical. Equal entries are not always repeated. Where two headings read alike, the source gives them in different places.
# Key:
# Ba/F3^myr-Akt1 cells = assay: CellTiter-Glo cell viability assay; settings: for cell viability: CTG; for viability at 0.0001 µM: read-out: cell viability, CTG, myr-Akt1, 0.1 nM, single replicates; for viability at 5 µM: read-out: cell viability, CTG, myr-Akt1, 5000 nM, single replicates; for Log ratio EC50 [Akt] / EC50 [Akt], Akt1 / Akt2: cell viability assay Ba/F3 myr-Akt cells, log units
# [1] = CellTiter-Glo cell viability assay; assay type: cell-based, murine; settings: mouse
# parental Ba/F3 cells = assay: CellTiter-Glo cell viability assay; assay type: cell-based, murine; settings: for cell viability: CTG, parental
# [2] = test system: pAkt^S473 and downstream targets in Ba/F3 myr-Akt3; assay: Western blot analysis, Ba/F3 myr-Akt3 cells; assay type: cell-based, murine; settings: Ba/F3 myr-Akt3, 4-h treatment
# Protocol: Cells were seeded into six-well tissue culture plates (Sarstedt) (BaF3 myr-Akt1/2/3: 10^6 cells/well, PANC1: 250.000 cells/well). After 24 h incubation, cells were treated with various concentrations of inhibitors or DMSO and incubated for additional 4.5 h before cells were washed twice with ice-cold PBS. Cell lysis was initiated by addition of 100 μL RIPA buffer (Cell Signaling Technology) per well supplemented with phosphatase and protease inhibitor cocktails (Sigma) followed by incubation on ice for 20 min. Cells were then harvested by scraping (PANC1) or centrifugation (BaF3). Whole cell lysates were cleared by centrifugation at 14,000×g/4 °C for 10 min and transferred into fresh, pre-cooled microcentrifuge tubes. Protein concentrations were determined using the Pierce BCA protein assay (Thermo) as per manufacturer’s instructions. Equal amounts of protein were separated by SDS-PAGE and transferred to Immobilon-FL PVDF membranes (Merck Millipore) using Pierce™ 1-step transfer buffer (Thermo) and the Pierce™ Power Blotter (Thermo). Membranes were washed for 5 min with ddH2O, blocked with Intercept®Blocking Buffer TBS (Li-Cor) for 1 h at room temperature, and then incubated with primary antibodies diluted in Intercept®Blocking Buffer TBS overnight at 4 °C with gentle agitation. […]
# Ba/F3^myr-Akt3 cells = assay: CellTiter-Glo cell viability assay; settings: for cell viability: CTG; for Log ratio EC50 [Akt] / EC50 [Akt], Akt3 / Akt2: cell viability assay Ba/F3 myr-Akt cells, log units
# Protocol: On day 0, cells were plated into white 384-well cell culture plates (Greiner Bio-One) using a Multidrop reagent dispenser (Thermo Fisher Scientific) at cell numbers that ensure linear and optimal luminescent signal intensity (Ba/F3myr-Akt1: 600 cells/well, Ba/F3myr-Akt2: 800 cells/well, Ba/F3myr-Akt3: 800 cells/well). […] Cell viability was analyzed on day 4 using the CellTiter-Glo Assay (Promega) as per the manufacturer’s instructions. […] All experimental points were measured in duplicates for each plate and were replicated in at least three plates.
# Akt1 = Akt1 (Homo sapiens, UniProt P31749); assay: STK HTRF KinEASE activity-based assay (IC50); settings: for Log ratio IC50 [Akt] / IC50 [Akt], Akt1 / Akt2: biochemical activity based assay, log units
# Sequence of Akt1 (P31749 whole entry): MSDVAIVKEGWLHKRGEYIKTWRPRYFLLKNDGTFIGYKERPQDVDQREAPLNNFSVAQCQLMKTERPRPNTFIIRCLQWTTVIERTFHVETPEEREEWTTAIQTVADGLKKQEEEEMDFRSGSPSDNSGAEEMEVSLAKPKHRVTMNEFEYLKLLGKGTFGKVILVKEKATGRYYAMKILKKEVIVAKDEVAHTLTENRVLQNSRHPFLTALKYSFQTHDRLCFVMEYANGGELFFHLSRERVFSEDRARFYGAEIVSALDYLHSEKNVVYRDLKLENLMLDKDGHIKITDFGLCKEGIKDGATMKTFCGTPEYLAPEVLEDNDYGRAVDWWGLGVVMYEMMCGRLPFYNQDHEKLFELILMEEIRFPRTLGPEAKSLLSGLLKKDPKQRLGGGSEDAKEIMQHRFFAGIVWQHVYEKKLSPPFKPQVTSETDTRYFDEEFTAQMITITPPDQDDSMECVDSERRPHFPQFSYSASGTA
# Protocol: (§1) The biochemical half maximal inhibitory concentrations (IC50) were determined with the STK HTRF KinEASE assay (Cisbio) according to the manufactor’s instructions. Briefly: 5 µL Kinase solution and 2.5 µL inhibitor solution (8% DMSO in HTRF buffer) were incubated for 1 h before the reaction was started by addition of 2.5 µL starting solution containing ATP and substrate peptide. […] After reaction completion (Akt1: 60 min, Akt2: 20 min, Akt3: 15 min), 10 µL of stop solution were added. […] The quotient of both intensities were recorded at eight different inhibitor concentrations and data fit to a Hill 4-parameter equation with Quattro software suite (Quattro Research GmbH, Martinsried, Germany). Each reaction was performed in duplicates and at least three independent determinations of each IC50 were made.
# Akt3 [3] = biological target: T1, Akt3 (Homo sapiens, UniProt Q9Y243); assay: STK HTRF KinEASE activity-based assay (IC50)
# T1 sequence (Q9Y243 whole entry): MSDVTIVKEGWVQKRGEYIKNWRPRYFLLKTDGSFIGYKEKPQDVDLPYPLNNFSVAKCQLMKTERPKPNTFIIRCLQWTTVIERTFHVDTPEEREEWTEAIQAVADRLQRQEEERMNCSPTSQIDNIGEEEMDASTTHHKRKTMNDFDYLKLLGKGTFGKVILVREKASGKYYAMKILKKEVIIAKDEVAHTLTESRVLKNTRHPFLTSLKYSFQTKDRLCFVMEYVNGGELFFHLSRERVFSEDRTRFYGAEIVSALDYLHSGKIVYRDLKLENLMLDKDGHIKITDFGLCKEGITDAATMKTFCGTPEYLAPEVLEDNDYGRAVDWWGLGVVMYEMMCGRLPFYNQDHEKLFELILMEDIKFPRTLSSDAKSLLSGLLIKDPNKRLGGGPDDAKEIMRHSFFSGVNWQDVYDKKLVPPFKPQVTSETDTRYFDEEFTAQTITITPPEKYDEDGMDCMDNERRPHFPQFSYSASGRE
# Akt2 [4] = biological target: T2, Akt2 (Homo sapiens, UniProt P31751); assay: STK HTRF KinEASE activity-based assay (IC50)
# T2 sequence (P31751 whole entry): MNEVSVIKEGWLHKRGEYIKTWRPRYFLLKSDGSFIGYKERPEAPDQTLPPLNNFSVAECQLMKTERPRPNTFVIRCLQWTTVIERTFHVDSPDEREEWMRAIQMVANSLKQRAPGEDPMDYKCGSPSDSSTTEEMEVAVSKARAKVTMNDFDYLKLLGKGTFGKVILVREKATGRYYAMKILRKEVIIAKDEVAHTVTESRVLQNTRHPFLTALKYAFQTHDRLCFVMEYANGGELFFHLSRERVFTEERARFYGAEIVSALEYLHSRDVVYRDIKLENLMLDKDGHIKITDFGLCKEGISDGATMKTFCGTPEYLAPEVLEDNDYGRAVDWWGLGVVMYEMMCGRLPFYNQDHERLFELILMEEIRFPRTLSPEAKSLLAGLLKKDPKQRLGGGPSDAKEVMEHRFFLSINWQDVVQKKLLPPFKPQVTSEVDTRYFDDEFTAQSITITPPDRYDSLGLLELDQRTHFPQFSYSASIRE
# Protocol: as §1
# Akt3 [5] = biological target: T1, Akt3; assay: PhosphoSens continuous fluorometric kinetic enzyme assay
# Protocol: (§2) By addition of either 8 nM Akt1, 2 nM Akt2, or 5 nM Akt3 (final concentrations) the reactions were initiated. […] Afterwards the kobs-values were plotted versus the inhibitor concentrations [I] and then fit to the following hyperbolic Eq.
# Akt2 [6] = biological target: T2, Akt2; assay: as above
# Protocol: as §2
# Ba/F3^myr-Akt2 cells = assay: CellTiter-Glo cell viability assay
# [7] = test system: pAkt^S473 and downstream targets in Ba/F3 myr-Akt1; settings: Ba/F3 myr-Akt1, 4-h treatment
# [8] = Mus musculus, read-out: CTG BaF3myr-Akt1, individual determinations, single replicates
# [9] = read-out: CTG BaF3myr-Akt1, individual determinations, single replicates
# [10] = Mus musculus, BaF3, parental cells, mean of replicates, read-out: CTG BaF3, Mean
# [11] = Mus musculus, BaF3, parental cells, single replicates, read-out: CTG BaF3, individual determinations
# [12] = parental cells, single replicates, read-out: CTG BaF3, individual determinations
# [13] = read-out: CTG BaF3myr-Akt3, individual determinations, single replicates
# [14] = Mus musculus, read-out: CTG BaF3myr-Akt1, Mean, mean of replicates
# [15] = Mus musculus, read-out: CTG BaF3myr-Akt3, individual determinations, single replicates
# [16] = Mus musculus, read-out: CTG BaF3myr-Akt2, Mean, mean of replicates
# [17] = read-out: CTG BaF3myr-Akt2, individual determinations, single replicates
smiles,measurement,setting,value
"C=CC(=O)Nc1ccc2[nH]c(=O)n(C3CCN(Cc4ccc(-c5[nH]c(=O)c(CC(C)C)nc5-c5ccccc5)cc4)CC3)c2c1 [16b, reference compound]",cell viability,"Ba/F3^myr-Akt1 cells; myr-Akt1, 0.1 nM, single replicates, 0.0001 µM",105.6 % of control
same,cell viability,"Ba/F3^myr-Akt1 cells; myr-Akt1, 5000 nM, single replicates, 5 µM",102.7 % of control and 99.1 % of control
same,EC50,Ba/F3^myr-Akt1 cells; [8],29.7 µM
same,viability at 0.0001 µM,Ba/F3^myr-Akt1 cells; Mus musculus,99%
same,viability at 5 µM,Ba/F3^myr-Akt1 cells; Mus musculus,102%
same,EC50,Ba/F3^myr-Akt1 cells; [9],29.8 µM and > 30 µM
same,"viability at 3 days, 5 µM","[1]; parental Ba/F3 cells, CTG, parental, 5000 nM, single replicates",98%
same,cell viability,"parental Ba/F3 cells; 0.1 nM, single replicates, 0.0001 µM",102.9 % of control and 116.0 % of control and 91.9 % of control
same,cell viability,"parental Ba/F3 cells; 5000 nM, single replicates, 5 µM",99.0 % of control and 116.0 % of control
same,EC50,parental Ba/F3 cells; [10],20.1 µM
same,EC50,parental Ba/F3 cells; [11],21.6 µM
same,EC50,parental Ba/F3 cells; [12],15.9 µM and 22.9 µM
same,pAkt and downstream targets (immunoblot),[2],preferential binding
same,cell viability,"Ba/F3^myr-Akt3 cells; myr-Akt3, 0.1 nM, single replicates, 0.0001 µM",96.8 % of control
same,cell viability,"Ba/F3^myr-Akt3 cells; myr-Akt3, 5000 nM, single replicates, 5 µM",61.2 % of control
same,EC50,Ba/F3^myr-Akt3 cells; [13],> 30 µM and 24.5 µM and 11.4 µM
C=CC(=O)Nc1ccc2[nH]c(=O)n(C3CCN(Cc4ccc(-c5ncc(Cc6cccnc6)cc5-c5ccccc5)cc4)CC3)c2c1 [compound 21],EC50,Ba/F3^myr-Akt1 cells; [14],19.7 µM
same,EC50,Ba/F3^myr-Akt1 cells; [8],21.2 µM
same,"Log ratio EC50 [Akt] / EC50 [Akt], Akt1 / Akt2",Ba/F3^myr-Akt1 cells,0.95
same,EC50,Ba/F3^myr-Akt1 cells; [9],13.3 µM and 24.6 µM
same,IC50,"Akt1; HTRF IC50 Akt1, Mean, mean of replicates",1.8 µM
same,IC50,"Akt1; HTRF IC50 Akt1, individual determinations, single replicates",1.82 µM and 2.04 µM and 2.47 µM and 0.858 µM
same,IC50,"Akt1; IC50 Akt1, HTRF, ATP at KM, 1 h preincubation",2.11 ± 0.268 µM
same,"Log ratio IC50 [Akt] / IC50 [Akt], Akt1 / Akt2",Akt1,1.30
same,EC50,parental Ba/F3 cells; [10],14.7 µM
same,EC50,parental Ba/F3 cells; [11],18.2 µM
same,EC50,parental Ba/F3 cells; [12],11.7 µM and 14.3 µM
same,IC50,"Akt3 [3]; HTRF IC50 Akt3, individual determinations, single replicates",0.233 µM and 0.416 µM and 0.225 µM and 0.214 µM
same,IC50,"Akt3 [3]; IC50 Akt3, HTRF, ATP at KM, 1 h preincubation",0.272 ± 0.084 µM
same,IC50,"Akt2 [4]; HTRF IC50 Akt2, Mean, mean of replicates",0.0985 µM
same,IC50,"Akt2 [4]; HTRF IC50 Akt2, individual determinations, single replicates",0.0929 µM and 0.124 µM and 0.104 µM
same,IC50,"Akt2 [4]; IC50 Akt2, HTRF, ATP at KM, 1 h preincubation",0.099 ± 0.006 µM
same,Ki,Akt3 [5]; Ki Akt3,0.064 ± 0.004 µM
same,Ki,"Akt3 [5]; Ki Akt3, Mean, mean of replicates",0.0638 µM
same,Ki,"Akt3 [5]; Ki Akt3, individual determinations, single replicates",0.0626 µM and 0.0693 µM and 0.0594 µM
same,kinact/KI,Akt3 [5]; read-out: kinact /Ki Akt3,8000 ± 1000 M⁻¹ s⁻¹
same,kinact/KI,"Akt3 [5]; read-out: kinact /Ki Akt3, individual determinations, single replicates",7000 M⁻¹ s⁻¹
same,kinact,Akt3 [5]; read-out: kinact Akt3,0.000517 s⁻¹
same,kinact,"Akt3 [5]; read-out: kinact Akt3, Mean, mean of replicates",0.000517 s⁻¹
same,kinact,"Akt3 [5]; read-out: kinact Akt3, individual determinations, single replicates",0.000433 s⁻¹
same,"kinact /Ki Akt3, individual determinations",Akt3 [5]; single replicates,0.009
same,"kinact Akt3, individual determinations",Akt3 [5]; single replicates,0.037 min⁻¹ and 0.031 min⁻¹
same,EC50,"Ba/F3^myr-Akt3 cells; Mus musculus, read-out: CTG BaF3myr-Akt3, Mean, mean of replicates",6.52 µM
same,EC50,Ba/F3^myr-Akt3 cells; [15],5.55 µM
same,"Log ratio EC50 [Akt] / EC50 [Akt], Akt3 / Akt2",Ba/F3^myr-Akt3 cells,-0.46
same,EC50,Ba/F3^myr-Akt3 cells; [13],6.27 µM and 7.12 µM
same,Ki,Akt2 [6]; Ki Akt2,0.021 ± 0.005 µM
same,Ki,"Akt2 [6]; Ki Akt2, Mean, mean of replicates",0.0213 µM
same,Ki,"Akt2 [6]; Ki Akt2, individual determinations, single replicates",0.0272 µM and 0.0156 µM
same,kinact/KI,Akt2 [6]; read-out: kinact /Ki Akt2,12000 ± 5000 M⁻¹ s⁻¹
same,kinact,Akt2 [6]; read-out: kinact Akt2,0.000233 s⁻¹
same,kinact,"Akt2 [6]; read-out: kinact Akt2, individual determinations, single replicates",0.000267 s⁻¹
same,"kinact Akt2, individual determinations",Akt2 [6]; single replicates,0.017 min⁻¹ and 0.009 min⁻¹
same,EC50,Ba/F3^myr-Akt2 cells; [16],2.23 µM
same,EC50,"Ba/F3^myr-Akt2 cells; Mus musculus, read-out: CTG BaF3myr-Akt2, individual determinations, single replicates",2.02 µM
same,EC50,Ba/F3^myr-Akt2 cells; [17],2.49 µM and 2.19 µM
"C=CC(=O)Nc1ccc2[nH]c(=O)n(C3CCN(Cc4ccc(-c5nc(C)c(=O)[nH]c5-c5ccccc5)cc4)CC3)c2c1 [15a, reference compound]",EC50,Ba/F3^myr-Akt1 cells; [14],7.21 µM
same,EC50,Ba/F3^myr-Akt1 cells; [8],7.37 µM
same,viability at 0.0001 µM,Ba/F3^myr-Akt1 cells; Mus musculus,107%
same,viability at 5 µM,Ba/F3^myr-Akt1 cells; Mus musculus,72.2%
same,"Log ratio EC50 [Akt] / EC50 [Akt], Akt1 / Akt2",Ba/F3^myr-Akt1 cells,-0.31
same,EC50,Ba/F3^myr-Akt1 cells; [9],7.33 µM and 7.9 µM and 6.25 µM
same,"Log ratio IC50 [Akt] / IC50 [Akt], Akt1 / Akt2",Akt1,-2.52
same,"viability at 3 days, 0.0001 µM",[1]; cell viability,107%
same,EC50,"parental Ba/F3 cells; Mus musculus, BaF3, CTG, parental BaF3 cell line, read-out: EC50 BaF3",> 30 µM
same,EC50,parental Ba/F3 cells; [10],> 30 µM
same,EC50,parental Ba/F3 cells; [11],> 30 µM
same,EC50,parental Ba/F3 cells; [12],> 30 µM
same,pAkt and downstream targets (immunoblot),[7],more potent towards myr-Akt1 than myr-Akt2 and myr-Akt3
same,EC50,Ba/F3^myr-Akt3 cells; [15],> 30 µM
same,viability at 0.0001 µM,"Ba/F3^myr-Akt3 cells; Mus musculus, read-out: cell viability, CTG, myr-Akt3, 0.1 nM, single replicates",105%
same,viability at 5 µM,"Ba/F3^myr-Akt3 cells; Mus musculus, read-out: cell viability, CTG, myr-Akt3, 5000 nM, single replicates",99.8%
same,"Log ratio EC50 [Akt] / EC50 [Akt], Akt3 / Akt2",Ba/F3^myr-Akt3 cells,-0.26
same,EC50,Ba/F3^myr-Akt3 cells; [13],> 30 µM (2×) and 17.8 µM
same,EC50,Ba/F3^myr-Akt2 cells; [16],14.9 µM
same,viability at 0.0001 µM,"Ba/F3^myr-Akt2 cells; Mus musculus, read-out: cell viability, CTG, myr-Akt2, 0.1 nM, single replicates",100%
same,viability at 5 µM,"Ba/F3^myr-Akt2 cells; Mus musculus, read-out: cell viability, CTG, myr-Akt2, 5000 nM, single replicates",96.1%
same,EC50,Ba/F3^myr-Akt2 cells; [17],13.5 µM and 21.4 µM and 14.1 µM and 10.4 µM
